Test results from paper PMC6628435, “Chemical Synthesis, Proper Folding, Nav Channel Selectivity Profile and Analgesic Properties of the Spider Peptide Phlotoxin 1” (Toxins, 2019).
Bridge positions count the residues as written; N and C are the ends. Peptide text beside a SMILES is read from it.

Tests used:
[1] = system: formalin-induced spontaneous pain behavior; assay: Formalin pain test in mice after intrathecal injection; assay type: in vivo, C57BL/6J mice; settings: intrathecal, 10 µL; PhlTx1 100 pmoles (n = 5), morphine 0.25 mg (n = 6); 10 µL 5% formalin in hindpaw; versus vehicle
[2] = system: human Nav1.7 channel; settings: ref [47]; cited from earlier work
[3] = system: Nav1.5/β1; assay: Two-electrode voltage-clamp on Xenopus laevis oocytes expressing Nav1.5/β1; assay type: cell-based; settings: 1 µM; voltage of maximum sodium influx, holding −90 mV; oocytes TEVC; n ≥ 3
Excerpt: Using the two-electrode voltage-clamp technique on Xenopus laevis oocytes, the effect of PhlTx1 was also compared on eight different cloned vertebrate Nav channels co-expressed with the β1 subunit (Nav1.1-1.8/β1) and on the neuronal insect Nav channel, para, co-expressed with the tipE subunit (Figure 3 and Figure 4). […] Normalized current-voltage relationships (I-V curve) of Nav1.2/β1 and Nav1.3/β1 channels seemed to be shifted towards more negative potentials when PhlTx1 was applied, but shifts were not statistically significant […] (Figure 4). The activation phase of the other studied Nav channel subtypes was not affected. No obvious alteration in channel availability was observed, except a 5-mV negative shift for Nav1.3/β1, although that was also non-significant (p > 0.05).
Figure 4 1 µM of PhlTx1 was tested on Nav1.1/β1, Nav1.2/β1, Nav1.3/β1, Nav1.4/β1, Nav1.5/β1, Nav1.6/β1, Nav1.8/β1 and para/tipE (n ≥ 3). Left column: current traces were evoked by a 50-ms depolarization to the voltage of maximum sodium influx, depending on the Nav studied, from a holding potential of −90 mV. At 1 µM PhlTx1, all studied Nav channels, except Nav1.4/β1, were blocked for about 10% (no toxin: *). The current of Nav1.4/β1 was reduced for about 35 ± 5%. Middle column: normalized I-V curves reveal no significant shift of the activation voltage (p > 0.05). […]

[4] = system: Kv3.4; assay: Ion channel selectivity screen, voltage-clamp, heterologous expression in Xenopus laevis oocytes and/or COS cells; assay type: cell-based; settings: 1 μM PhlTx1

For `CC(C)C[C@@H]1NC(=O)[C@@H](NC(=O)[C@H](C)N)CSSC[C@@H]2NC(=O)[C@@H]3CSSC[C@@H](C(=O)N[C@@H](CCCNC(=N)N)C(=O)N[C@@H](Cc4ccc(O)cc4)C(=O)N[C@@H](CCCCN)C(=O)N[C@@H](CC(C)C)C(=O)N[C@@H](Cc4ccccc4)C(=O)O)NC(=O)[C@H](Cc4c[nH]c5ccccc45)NC(=O)[C@@H]4CCCN4C(=O)[C@H](Cc4ccc(O)cc4)NC(=O)[C@H](CCCCN)NC(=O)[C@H](Cc4c[nH]c5ccccc45)NC(=O)[C@H](CCC(=O)O)NC(=O)[C@H](CSSC[C@H](NC(=O)[C@H](CO)NC(=O)[C@H](CC(=O)O)NC(=O)[C@H](Cc4c[nH]c5ccccc45)NC(=O)[C@H](CCC(N)=O)NC(=O)CNC1=O)C(=O)N[C@@H](CC(=O)O)C(=O)N1CCC[C@H]1C(=O)N[C@@H](CCCCN)C(=O)N[C@@H](C)C(=O)N[C@@H](CO)C(=O)N[C@@H](CCCCN)C(=O)N3)NC(=O)[C@H](C)NC(=O)[C@H](Cc1ccc(O)cc1)NC(=O)[C@H](CC(N)=O)NC(=O)[C@@H]1CCCN1C2=O` [PhlTx1, Phlotoxin-1] (H-ACLGQWDSCDPKASKCCPNYACEWKYPWCRYKLF-OH; disulfide 2-17, 9-22, 16-29; N-terminus and C-terminus assumed), the “formalin-induced pain behavior (licking), Phase II (inflammation, 10–45 min)” value [1] is given as “substantially reduced the response”, the “formalin-induced pain behavior, Phase I (acute pain, 0–10 min)” value [1] is given as “substantially reduced the response” and the IC50 [2] is given as 250 nM. For the same compound, the “block of sodium current” value [3] was “about 10%” and the “current inhibition at the voltage of maximum ion flux” value [4] was roughly 20%.
